pIC50: −log10 of the molar value.
Key:
SZ-4 cells = experiment: IL-2 dependent cell proliferation assay (MTT); format: cell-based; settings: Homo sapiens, 72 hr, IL-2, MTT, read-out: IC50, inhibition of proliferation
From the text: The number of surviving cells is directly proportional to the level of the formazan product created.

JAK2 [1] = target: JAK2 (Homo sapiens, UniProt O60674); experiment: In vitro JAK kinase enzymatic assay (JAK2); format: biochemical
Description: (§1) The substrate is poly-glutamic acid-tyrosin peptide, Poly-(GT) (4:1) (Sigma-Aldrich, catalog P7244). [γ-^33P]-ATP is purchased from Perkin Elmer (catalog NEG602H001MC) (EasyTides). Kinase reaction buffer is 100 mM HEPES (pH 7.5), 20 mM MgCl2, 2 mM EGTA, 0.02% Brij 35. The JAK1 (Invitrogen Catalog PV4774), JAK2 (Invitrogen Catalog PV4210) and TYK2 Invitrogen Catalog PV4790) enzymatic assays are performed in the similar way. JAK1 and JAK2 substrate is Poly-(GT) (4:1), but TYK2 substrate is peptide with sequences of […]. The reaction is carried for 2 hours at room temperature. […] The unreacted phosphate are washed away without interfering with the detection of real phosphorylated products. The final product can be detected by instruments such as scintillation counter, top counter or phosphoimager. The enzymatic assays can also performed in assays described those described in the art [e.g., Ma H et al, Expert Opin. Drug Discov.
(§2) Signal=Bottom+(Top−Bottom)/(1+10^((Log(IC50)−Log [I])*Hill Slope) Bottom and Top refer to the post and pre-transition baselines, respectively.

JAK2 [2] = experiment: In vitro JAK kinase enzymatic assay (JAK2); format: biochemical
Description: as §1, §2

JAK3 [3] = target: T1, JAK3 (Homo sapiens (Human), UniProt P52333); experiment: In vitro JAK kinase enzymatic assay (JAK3); format: biochemical
Description: (§3) The JAK3 kinase is recombinant human protein (catalytic domain, amino acids 781-1124 with GST-tag), expressed in insect cells (Invitrogen Catalog PV3855). The substrate is poly-glutamic acid-tyrosin peptide, Poly-(GT) (4:1) (Sigma-Aldrich, catalog P7244). [γ-^33P]-ATP is purchased from Perkin Elmer (catalog NEG602H001MC) (EasyTides). Kinase reaction buffer is 100 mM HEPES (pH 7.5), 20 mM MgCl2, 2 mM EGTA, 0.02% Brij 35. The JAK1 (Invitrogen Catalog PV4774), JAK2 (Invitrogen Catalog PV4210) and TYK2 Invitrogen Catalog PV4790) enzymatic assays are performed in the similar way. JAK1 and JAK2 substrate is Poly-(GT) (4:1), but TYK2 substrate is peptide with sequences of […]. The reaction is carried for 2 hours at room temperature. After the reactions are finished or stopped, portion or all the reaction mixtures are transferred onto filter paper P81 Phosphocellulose paper (Whatman catalog 3698-915) for binding the final radioisotope labeled products. The unreacted phosphate are washed away without interfering with the detection of real phosphorylated products. The final product can be detected by instruments such as scintillation counter, top counter or phosphoimager. The enzymatic assays can also performed in assays described those described in the art [e.g., Ma H et al, Expert Opin. Drug Discov. 3, 607-621 (2008); Olive D M, Expert Rev Proteomics, 1, 327-341 (2004)].
as §2
Target sequence in this assay (P52333 781-1124): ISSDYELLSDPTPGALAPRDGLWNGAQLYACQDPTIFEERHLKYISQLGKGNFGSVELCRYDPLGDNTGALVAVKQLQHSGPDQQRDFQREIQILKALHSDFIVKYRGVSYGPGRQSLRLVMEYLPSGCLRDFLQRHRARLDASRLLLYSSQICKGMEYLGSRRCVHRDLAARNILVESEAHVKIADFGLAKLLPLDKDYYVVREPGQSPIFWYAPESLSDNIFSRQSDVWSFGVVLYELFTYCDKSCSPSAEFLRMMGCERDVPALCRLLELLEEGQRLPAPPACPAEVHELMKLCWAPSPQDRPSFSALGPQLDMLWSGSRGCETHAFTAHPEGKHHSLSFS

JAK1 = JAK1 (Homo sapiens, UniProt P23458); experiment: In vitro JAK kinase enzymatic assay (JAK1); format: biochemical
Description: as §3, §2

TYK2 = TYK2 (Homo sapiens (Human), UniProt P29597); experiment: In vitro JAK kinase enzymatic assay (TYK2); format: biochemical
Description: as §3, §2

[4] = system: autoimmune type I diabetes; settings: NOD mouse; cited from earlier work
JAK3 [5] = target: T1, JAK3; settings: cited from earlier work
Target sequence in this assay (P52333 whole entry, the tested form may be a part): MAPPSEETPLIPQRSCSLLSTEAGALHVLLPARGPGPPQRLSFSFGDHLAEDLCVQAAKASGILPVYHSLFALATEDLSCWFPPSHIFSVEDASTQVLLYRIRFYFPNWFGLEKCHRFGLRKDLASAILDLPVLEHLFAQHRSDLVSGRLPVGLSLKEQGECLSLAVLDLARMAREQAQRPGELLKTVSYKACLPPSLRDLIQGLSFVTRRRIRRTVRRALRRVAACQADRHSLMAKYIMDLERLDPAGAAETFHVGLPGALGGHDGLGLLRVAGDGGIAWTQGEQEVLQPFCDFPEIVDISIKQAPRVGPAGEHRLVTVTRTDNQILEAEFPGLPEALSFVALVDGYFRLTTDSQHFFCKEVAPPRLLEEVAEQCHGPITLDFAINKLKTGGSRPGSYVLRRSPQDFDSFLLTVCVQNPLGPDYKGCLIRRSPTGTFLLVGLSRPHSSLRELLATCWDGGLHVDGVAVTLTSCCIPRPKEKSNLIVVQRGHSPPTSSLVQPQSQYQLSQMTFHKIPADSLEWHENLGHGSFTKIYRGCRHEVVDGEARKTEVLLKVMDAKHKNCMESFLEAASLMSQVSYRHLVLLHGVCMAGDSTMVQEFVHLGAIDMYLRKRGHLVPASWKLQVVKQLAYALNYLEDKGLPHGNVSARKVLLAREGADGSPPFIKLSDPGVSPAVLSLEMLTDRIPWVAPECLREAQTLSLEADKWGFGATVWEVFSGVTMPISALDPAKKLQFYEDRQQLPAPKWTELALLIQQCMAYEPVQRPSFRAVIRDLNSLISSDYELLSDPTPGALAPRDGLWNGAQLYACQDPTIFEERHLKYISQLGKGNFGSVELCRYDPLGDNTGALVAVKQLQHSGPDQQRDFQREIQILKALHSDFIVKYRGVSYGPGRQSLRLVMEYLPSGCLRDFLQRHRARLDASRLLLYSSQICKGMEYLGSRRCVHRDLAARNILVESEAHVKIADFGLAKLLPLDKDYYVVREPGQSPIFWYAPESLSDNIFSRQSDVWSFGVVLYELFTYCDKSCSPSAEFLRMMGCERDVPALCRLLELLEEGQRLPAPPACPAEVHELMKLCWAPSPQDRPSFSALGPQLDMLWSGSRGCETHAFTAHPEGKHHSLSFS

[6] = system: amyotrophic lateral sclerosis (ALS); settings: transgenic mouse model of ALS; cited from earlier work
[7] = system: collagen-induced arthritis; settings: rat; cited from earlier work
[8] = system: adjuvant-induced arthritis; settings: rat; cited from earlier work
JAK3 phosphorylation = JAK3 phosphorylation detection by immunoprecipitation and Western blot; format: cell-based, human; settings: 0.8 μM compound with IL-2; IL-2 alone more than 12-fold
Description: Cell lines: The SZ-4 cell line is derived from a Sézary patient (Abrams, et al., 1991, J Investig Dermatol. 96, 31-37), and the growth of this cell line is IL-2 dependent. The cells are grown in RPMI 1640 medium supplemented with 10% fetal calf serum, 2 mM L-glutamine, penicillin 100 U/ml, streptomycin 100 ug/ml, and 10 I.U/ml IL-2 in a 5% CO2 humidified incubator at 37° C.
Protein and phosphorylation detection by immunoprecipitation and Western Blot: the above cells is used to evaluate the compounds activities of inhibiting JAK/STAT phosphorylations. After the cells are treated as described above, cells are collected and pelleted by centrifuging, cell pellets are then lysed with PI/RIPA lysis buffer (1% NP40, 1% Deoxycholic Acid, 0.1% SDS, 0.15M NaCl, 10 mM Sodium Phosphate, 1 mM PMSF, 2 mM EDTA, 10 mM NaF, 10 mM Napyrophosphate, 0.4 mM Na3VO4, 10 mM Indoacetamide, PH, 8.0) on ice. The lysed cells are centrifuged at 15,000 rpm to remove cell debris, add 5 ul of Anti-Phosphotyrosine, 4G10® Platinum (Upstate Biotechnology, Lake Placid, N.Y.), and incubate for 90 min on ice. Then, the protein A-Sepharose (Invitrogen, Carlsbad, Calif.) is added to precipitate the immune complexes for 1 hr at 4° C. The immunoprecipitates are washed 3× with lysis buffer, and suspended in loading buffer. […]

[9] = system: myeloid dendritic cells (DCs); settings: cited from earlier work

JAK2 (Homo sapiens, UniProt O60674), sequence (O60674 whole entry, looked up): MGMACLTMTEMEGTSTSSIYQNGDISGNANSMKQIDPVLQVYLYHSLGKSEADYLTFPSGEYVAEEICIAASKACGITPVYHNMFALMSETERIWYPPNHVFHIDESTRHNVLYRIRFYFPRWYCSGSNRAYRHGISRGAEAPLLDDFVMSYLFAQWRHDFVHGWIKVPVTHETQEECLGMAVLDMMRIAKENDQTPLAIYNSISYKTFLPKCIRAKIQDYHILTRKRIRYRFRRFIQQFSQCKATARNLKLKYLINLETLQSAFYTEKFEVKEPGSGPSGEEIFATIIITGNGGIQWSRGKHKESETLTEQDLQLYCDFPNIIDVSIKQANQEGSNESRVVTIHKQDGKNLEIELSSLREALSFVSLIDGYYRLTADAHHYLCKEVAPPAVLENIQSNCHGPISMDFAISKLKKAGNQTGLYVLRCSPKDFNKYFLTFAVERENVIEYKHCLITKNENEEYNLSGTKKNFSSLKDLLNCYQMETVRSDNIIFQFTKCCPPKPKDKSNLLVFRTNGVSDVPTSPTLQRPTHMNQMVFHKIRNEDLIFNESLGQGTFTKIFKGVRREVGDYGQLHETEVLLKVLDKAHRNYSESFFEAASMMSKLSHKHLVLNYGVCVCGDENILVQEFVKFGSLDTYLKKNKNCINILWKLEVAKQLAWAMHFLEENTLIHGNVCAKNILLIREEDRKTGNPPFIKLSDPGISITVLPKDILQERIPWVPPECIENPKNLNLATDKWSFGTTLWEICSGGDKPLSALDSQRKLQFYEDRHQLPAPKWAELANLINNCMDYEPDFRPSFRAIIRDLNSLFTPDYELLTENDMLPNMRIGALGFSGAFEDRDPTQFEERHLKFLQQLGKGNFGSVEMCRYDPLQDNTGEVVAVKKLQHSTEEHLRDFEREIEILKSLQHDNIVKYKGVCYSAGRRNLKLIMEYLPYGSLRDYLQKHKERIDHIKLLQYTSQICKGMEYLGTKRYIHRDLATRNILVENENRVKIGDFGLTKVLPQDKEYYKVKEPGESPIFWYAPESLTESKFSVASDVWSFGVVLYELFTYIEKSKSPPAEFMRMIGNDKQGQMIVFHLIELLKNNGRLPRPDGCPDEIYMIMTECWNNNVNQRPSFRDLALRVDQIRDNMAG
TYK2, sequence (P29597 whole entry): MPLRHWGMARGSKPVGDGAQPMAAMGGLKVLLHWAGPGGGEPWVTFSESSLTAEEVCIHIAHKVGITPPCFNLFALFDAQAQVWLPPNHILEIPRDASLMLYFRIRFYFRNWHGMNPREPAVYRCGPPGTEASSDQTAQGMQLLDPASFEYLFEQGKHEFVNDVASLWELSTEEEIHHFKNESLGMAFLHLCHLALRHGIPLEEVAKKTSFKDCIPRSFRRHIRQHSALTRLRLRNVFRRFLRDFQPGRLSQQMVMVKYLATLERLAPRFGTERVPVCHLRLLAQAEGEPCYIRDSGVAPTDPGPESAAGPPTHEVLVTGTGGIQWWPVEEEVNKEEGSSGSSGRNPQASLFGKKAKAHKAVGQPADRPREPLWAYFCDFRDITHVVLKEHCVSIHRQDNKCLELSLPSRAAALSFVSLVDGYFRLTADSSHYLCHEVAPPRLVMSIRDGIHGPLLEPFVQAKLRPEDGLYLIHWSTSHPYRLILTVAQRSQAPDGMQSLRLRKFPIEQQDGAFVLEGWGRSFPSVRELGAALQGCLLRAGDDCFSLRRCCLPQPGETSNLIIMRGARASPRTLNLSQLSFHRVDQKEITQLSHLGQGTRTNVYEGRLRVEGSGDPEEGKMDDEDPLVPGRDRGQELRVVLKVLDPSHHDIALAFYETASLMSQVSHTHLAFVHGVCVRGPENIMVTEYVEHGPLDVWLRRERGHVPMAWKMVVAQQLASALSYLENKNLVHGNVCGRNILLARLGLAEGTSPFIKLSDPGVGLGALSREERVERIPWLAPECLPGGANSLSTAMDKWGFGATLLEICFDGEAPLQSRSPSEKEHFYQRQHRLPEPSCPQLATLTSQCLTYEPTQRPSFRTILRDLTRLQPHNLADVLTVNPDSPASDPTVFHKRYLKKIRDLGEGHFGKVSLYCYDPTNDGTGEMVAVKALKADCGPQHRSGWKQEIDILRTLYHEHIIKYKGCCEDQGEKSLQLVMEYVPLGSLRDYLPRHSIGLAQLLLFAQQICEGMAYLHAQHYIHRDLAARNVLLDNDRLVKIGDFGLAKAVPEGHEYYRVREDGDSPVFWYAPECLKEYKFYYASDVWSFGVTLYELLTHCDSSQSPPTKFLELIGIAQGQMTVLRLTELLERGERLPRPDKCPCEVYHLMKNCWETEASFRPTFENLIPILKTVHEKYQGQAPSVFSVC

SMILES	pIC50 (JAK2 [1])	pIC50 (JAK2 [2])	pIC50 (JAK3 [3])	pIC50 (JAK1)	pIC50 (TYK2)	further results
O=C(CN1CCN(c2ccccc2)CC1)Nc1cccc(-c2cnc3ccccc3n2)c1 [Example 16, 2-(4-phenylpiperazin-1-yl)-N-[3-(quinoxalin-2-yl)phenyl]acetamide]	< 5.00	4.74	6.57	< 4.70	< 4.70	pIC50 (SZ-4 cells): 6.57
COc1cc2ncnc(Nc3ccc(O)cc3)c2cc1OC [JANEX-1]	–	–	–	–	–	onset of diabetes [4]: delayed the onset of diabetes
COc1cc2ncnc(Nc3ccc(O)cc3)c2cc1OC [WHI-P131]	–	–	–	–	–	JAK3 IC50s (JAK3 [5]): low μM ranges; survival [6]: increased survival
C[C@@H]1CCN(C(=O)CC#N)C[C@@H]1N(C)c1ncnc2[nH]ccc12 [CP-690550]	–	–	–	–	–	effect in collagen-induced arthritis [7]: therapeutic effects; effect in adjuvant-induced arthritis [8]: therapeutic effects
N#CCC(=O)Nc1cccc(-c2cnc3ccccc3n2)c1 [Example 8, 2-cyano-N-[3-(quinoxalin-2-yl)phenyl]acetamide]	< 5.00	4.74	6.87	< 4.70	< 4.70	–
O=C(CCl)Nc1cccc(-c2cnc3ccccc3n2)c1 [Example 1, 2-chloro-N-(3-quinoxalin-2-ylphenyl)acetamide]	< 5.00	< 4.70	9.70	< 4.70	< 4.70	pIC50 (SZ-4 cells): 9.52; JAK3 phosphorylation level increase above background level (JAK3 phosphorylation): about 2 fold
O=C(CN1CCCCC1)Nc1cccc(-c2cnc3ccccc3n2)c1 [Example 9, 2-(piperidin-1-yl)-N-[3-(quinoxalin-2-yl)phenyl]acetamide]	< 5.00	< 4.70	6.76	< 4.70	< 4.70	–
COc1cc2ncnc(Nc3ccc(O)c(Br)c3)c2cc1OC [WHI-P-154]	–	–	–	–	–	effect on CD40-induced DC maturation [9]: prevented these effects

Source: patent publication US8592415B2, “Selective kinase inhibitors” (Reaction Biology Corp., priority 2009, dated 2013)
